Assays:
Test in all cases: Morphological assessment of vacuolization
Assay type in all cases: cell-based
HCT-116 (colon cancer) = tested on: HCT-116 (colon cancer)
Text: The methuophagy inducing activities of BAPT-27 were also prominent in different colon cancer cell lines with different genetic profiles. […] (FIG. 42). However, the vacuoles formation was not prominent in normal epithelial colon cells (CRL-1459). (FIG. 42).

[1] = tested on: BT-20 (triple negative breast cancer)
U-251 (glioblastoma) = tested on: U-251 (glioblastoma)

Measured: vacuolization

Cc1[nH]c2ccccc2c1-c1nn2c(-c3ccncc3)nnc2s1 [BAPT-36]
dose dependent vacuolization: all assays above
